From patent US20020173424A1, “Heterocyclyl-substituted benzoylcyclohexandiones, their preparation, and their use as herbicides” (priority 2000, published 2002) come the findings set out here.

Data set [1] deals with Setaria species. The data set can be described thus: Comparative experiment, post-emergence action against Setaria species. In kind it is in vivo. Particulars: even at a lower application rate. On the procedure:
Seeds of monocotyledonous and dicotyledonous weeds are placed in sandy loam soil in cardboard pots, covered with soil and grown in the greenhouse under good growth conditions. Two to three weeks after sowing, the experimental plants are treated at the three-leaf stage. The compounds according to the invention, which are formulated as wettable powders or as emulsion concentrates, are sprayed at a rate of 1 kg of active substance or less per hectare (converted) onto the green plant organs at an application rate of 600 to 800 l of water per ha (converted). After the experimental plants have remained in the greenhouse for approx. 3 to 4 weeks under optimal growth conditions, the effect of the compositions is scored visually in comparison with untreated controls. The compounds according to the invention also have a good herbicidal action against a broad spectrum of economically important monocotyledonous and dicotyledonous harmful plants when applied post-emergence. A large number of compositions according to the invention have an outstanding herbicidal action against the harmful plants.
5. Comparative Experiments
Analogously to the experimental conditions mentioned under item 2 (post-emergence herbicidal action), compound No. 1.1 according to the invention was compared with a prior-art compound with regard to its effect against Setaria species.

SMILES strings stand for the structures.

Regarding `CS(=O)(=O)c1ccc(C(=O)C2C(=O)CCCC2=O)c(Cl)c1C1=NOC2OCCC12` (centres unmarked) [1.1, 2-[2-chloro-4-methylsulfonyl-3-(3a,4,5,6a-tetrahydrofuro-[3,2-d]isoxazol-3-yl)benzoyl]cyclohexane-1,3-dione], the “action against Setaria species compared with prior-art compound” value in data set [1] was “more potent action against Setaria species than the prior-art compound”. The melting point is the temperature, or range, at which the solid turns liquid. `CCS(=O)(=O)c1ccc(C(=O)C2C(=O)CCCC2=O)c(Cl)c1C1=NOC2OCCC12` (centres unmarked) [1.2, 2-[2-chloro-4-ethylsulfonyl-3-(3a,4,5,6a-tetrahydrofuro[3,2-d]isoxazol-3-yl)benzoyl]cyclohexane-1,3-dione] displayed a melting point of 99 °C.
